From US10238667B2, “Vitamin D receptor/SMAD genomic circuit gates fibrotic response” (Salk Institute for Biological Studies, priority 2013, dated 2019)

System: primary rat HSCs
Test: Microarray expression profiling of TGFβ1 and TGFβ1+1,25(OH)2D3-treated HSCs
Assay type: cell-based
Details: 24 h
Source text: VDR Signaling Suppresses TGFβ-induced Pro-Fibrotic Genes. […] Euclidean clustering of both rows and columns using log2 transformed microarray expression data, n=2 per treatment group. […] Data represents the mean±SEM of at least three independent experiments performed in triplicate. Asterisks denote statistically significant differences (Student's unpaired t-test, *p<0.05, **p<0.01). HSCs were isolated from 10-week old male C57BL/6J mice and Wistar rats by in situ pronase, collagenase perfusion and single-step Histogenz gradient as previously reported (Hendriks et al., 1985; Knook et al., 1982). Isolated HSCs were cultured in DMEM (Mediatech) containing 20% FBS (Hyclone) on 6-well plates for 40 hours prior to end-point assays. Total RNA from primary rat or mouse HSCs was isolated using the RNeasy mini kit (Qiagen) according to standard protocols. RNA integrity and quality was assessed using the Agilent Bioanalyzer and prepared for hybridization to Illumina rat or mouse gene expression arrays according to standard Illumina protocols. Feature extraction was performed using the Illumina GenomeStudio software. Normalization and identification of differentially expressed genes from biological duplicates was performed using […] at http://sasquatch.ucsd.edu/vampire/.

[1] = TGFβ1 1 ng/ml ± 1,25(OH)2D3 100 nM

Compound: C=C1/C(=C\C=C2/CCC[C@]3(C)C([C@H](C)CCCC(C)(C)O)CC[C@@H]23)C[C@@H](O)C[C@@H]1O (stereo partly drawn) [1,25(OH)2D3, 1α,25 dihydroxyvitamin D3]
- LOC499078 VitD + TGFbeta AVG signal (TGFβ1 1 ng/ml + 1,25(OH)2D3 100 nM, Control 3963.4, TGFβ 9788.1): 2325
- Glipr1_predict VitD + TGFbeta AVG signal (TGFβ1 1 ng/ml + 1,25(OH)2D3 100 nM, Control 3986, TGFβ 9174): 1894
- Sh3kbp1 VitD + TGFbeta AVG signal (TGFβ1 1 ng/ml + 1,25(OH)2D3 100 nM, Control 4057.3, TGFβ 7133.8): 1618
- Ms4a7_predict VitD + TGFbeta AVG signal (TGFβ1 1 ng/ml + 1,25(OH)2D3 100 nM, Control 4402.2, TGFβ 10637): 1708
- LOC310190 VitD + TGFbeta AVG signal (TGFβ1 1 ng/ml + 1,25(OH)2D3 100 nM, Control 4496.5, TGFβ 12465): 2594
- Itgb2 VitD + TGF β Avg Signal (TGFβ1 1 ng/ml + 1,25(OH)2D3 100 nM, Control 4506.5, TGFβ 5580.6): 4858.4
- Nucb2 VitD + TGFbeta AVG signal (TGFβ1 1 ng/ml + 1,25(OH)2D3 100 nM, Control 4712.3, TGFβ 10527): 2733
- RT1-Ba VitD + TGFbeta AVG signal (TGFβ1 1 ng/ml + 1,25(OH)2D3 100 nM, Control 4721.8, TGFβ 13843): 3390
- LOC312102 VitD + TGFbeta AVG signal (TGFβ1 1 ng/ml + 1,25(OH)2D3 100 nM, Control 5658, TGFβ 19362): 4469
- Ptpro VitD + TGFbeta AVG signal (TGFβ1 1 ng/ml + 1,25(OH)2D3 100 nM, Control 5856.6, TGFβ 12798): 2551
- Dcir3 VitD + TGFbeta AVG signal (TGFβ1 1 ng/ml + 1,25(OH)2D3 100 nM, Control 6230.8, TGFβ 11228): 1354
- Oplah VitD + TGFbeta AVG signal (TGFβ1 1 ng/ml + 1,25(OH)2D3 100 nM, Control 6494.5, TGFβ 16466): 1922
- Itgb1 VitD + TGF β Avg Signal (TGFβ1 1 ng/ml + 1,25(OH)2D3 100 nM, Control 8050.9, TGFβ 10104.2): 7987.9
- Mmp14 VitD + TGF β Avg Signal (TGFβ1 1 ng/ml + 1,25(OH)2D3 100 nM, Control 8370.4, TGFβ 15560.3): 14980.5
- Timp1 VitD + TGF β Avg Signal (TGFβ1 1 ng/ml + 1,25(OH)2D3 100 nM, Control 10124.0, TGFβ 13471.4): 9101.3
- Ctgf VitD + TGF β Avg Signal (TGFβ1 1 ng/ml + 1,25(OH)2D3 100 nM, Control 10532.3, TGFβ 20216.0): 9730.1
- Col1a2 VitD + TGF β Avg Signal (TGFβ1 1 ng/ml + 1,25(OH)2D3 100 nM, Control 10691.1, TGFβ 24123.0): 9593.3
- Ms4a6b VitD + TGFbeta AVG signal (TGFβ1 1 ng/ml + 1,25(OH)2D3 100 nM, Control 12345, TGFβ 21779): 5158
- Ctsc VitD + TGFbeta AVG signal (TGFβ1 1 ng/ml + 1,25(OH)2D3 100 nM, Control 16420, TGFβ 32328): 6319
- Bmp2 TGFb/TGFB + VitD3 [1]: 5.3 NM_017178.1 Rattus norvegicus bone
- Cacnb3 TGFb/TGFB + VitD3 [1]: 6.0 NM_012828.1 Rattus norvegicus calcium channel
- Ccl12_predicte TGFb/TGFB + VitD3 [1]: 5.5 XM_213425.2 PREDICTED: Rattus norvegicus
- Ccr5 TGFb/TGFB + VitD3 [1]: 12.9 NM_053960.2 Rattus norvegicus chemokine (C-
- Cdh1 TGFb/TGFB + VitD3 [1]: 4.4 NM_031334.1 Rattus norvegicus cadherin 1
- Chst1_predict TGFb/TGFB + VitD3 [1]: 12.7 XM_575178.1 PREDICTED: Rattus norvegicus
- Ctsc TGFb/TGFB + VitD3 [1]: 5.1 NM_017097.1 Rattus norvegicus cathepsin C
- Cysltr1 TGFb/TGFB + VitD3 [1]: 4.4 NM_053641.1 Rattus norvegicus cysteinyl
- Dcir2 TGFb/TGFB + VitD3 [1]: 4.6 XM_579146.1 PREDICTED: Rattus norvegicus
- Dcir3 TGFb/TGFB + VitD3 [1]: 8.3 XM_579150.1 PREDICTED: Rattus norvegicus
- Dsipi TGFb/TGFB + VitD3 [1]: 4.0 NM_031345.1 Rattus norvegicus delta sleep
- Emr1 TGFb/TGFB + VitD3 [1]: 5.9 XM_579174.1 PREDICTED: Rattus norvegicus
- Fchsd2_predic TGFb/TGFB + VitD3 [1]: 4.9 XM_218965.3 PREDICTED: Rattus norvegicus
- Gas7 TGFb/TGFB + VitD3 [1]: 4.9 NM_053484.1 Rattus norvegicus growth arrest
- Glipr1_predict TGFb/TGFB + VitD3 [1]: 4.8 XM_576223.1 PREDICTED: Rattus norvegicus GLI
- Hod TGFb/TGFB + VitD3 [1]: 5.1 NM_133621.2 Rattus norvegicus homeobox only
- LOC304349 TGFb/TGFB + VitD3 [1]: 7.1 XM_221990.3 PREDICTED: Rattus norvegicus
- LOC305269 TGFb/TGFB + VitD3 [1]: 4.0 XM_223309.3 PREDICTED: Rattus norvegicus
- LOC310190 TGFb/TGFB + VitD3 [1]: 4.8 XM_226886.3 PREDICTED: Rattus norvegicus
- LOC312102 TGFb/TGFB + VitD3 [1]: 4.3 XM_231461.3 PREDICTED: Rattus norvegicus
- LOC361699 TGFb/TGFB + VitD3 [1]: 3.8 XM_341982.2 PREDICTED: Rattus norvegicus
- LOC366205 TGFb/TGFB + VitD3 [1]: 6.6 XM_345441.2 PREDICTED: Rattus norvegicus
- LOC366608 TGFb/TGFB + VitD3 [1]: 4.4 XM_345665.2 PREDICTED: Rattus norvegicus
- LOC497796 TGFb/TGFB + VitD3 [1]: 5.1 XM_579296.1 PREDICTED: Rattus norvegicus
- LOC498741 TGFb/TGFB + VitD3 [1]: 6.1 XM_574019.1 PREDICTED: Rattus norvegicus
- LOC498751 TGFb/TGFB + VitD3 [1]: 5.1 XM_574030.1 PREDICTED: Rattus norvegicus
- LOC499078 TGFb/TGFB + VitD3 [1]: 4.2 XM_574362.1 PREDICTED: Rattus norvegicus
- LOC499100 TGFb/TGFB + VitD3 [1]: 3.9 XM_218456.3 PREDICTED: Rattus norvegicus
- LOC499272 TGFb/TGFB + VitD3 [1]: 4.4 XM_579937.1 PREDICTED: Rattus norvegicus
- LOC499356 TGFb/TGFB + VitD3 [1]: 11.0 XM_574669.1 PREDICTED: Rattus norvegicus
- LOC501570 TGFb/TGFB + VitD3 [1]: 4.6 XM_576974.1 PREDICTED: Rattus norvegicus
- LOC502904 TGFb/TGFB + VitD3 [1]: 6.7 XM_578406.1 PREDICTED: Rattus norvegicus
- LOC502907 TGFb/TGFB + VitD3 [1]: 9.6 XM_578409.1 PREDICTED: Rattus norvegicus
- Ly49si1 TGFb/TGFB + VitD3 [1]: 4.6 XM_579297.1 PREDICTED: Rattus norvegicus
- Ly49si2 TGFb/TGFB + VitD3 [1]: 4.6 XM_579298.1 PREDICTED: Rattus norvegicus
- Ms4a4a_predi TGFb/TGFB + VitD3 [1]: 17.7 XM_342027.1 PREDICTED: Rattus norvegicus
- Ms4a6a_predi TGFb/TGFB + VitD3 [1]: 4.5 XM_215145.3 PREDICTED: Rattus norvegicus
- Ms4a6b TGFb/TGFB + VitD3 [1]: 4.2 NM_00100697 Rattus norvegicus membrane-
- Ms4a7_predict TGFb/TGFB + VitD3 [1]: 6.2 XM_215200.2 PREDICTED: Rattus norvegicus
- Nucb2 TGFb/TGFB + VitD3 [1]: 3.9 NM_021663.2 Rattus norvegicus nucleobindin 2
- Oplah TGFb/TGFB + VitD3 [1]: 8.6 NM_053904.1 Rattus norvegicus 5-oxoprolinase
- Pcsk1 TGFb/TGFB + VitD3 [1]: 7.4 NM_017091.1 Rattus norvegicus proprotein
- Pirb TGFb/TGFB + VitD3 [1]: 5.3 NM_031713.1 Rattus norvegicus paired-Ig-like
- Ptprc TGFb/TGFB + VitD3 [1]: 4.2 NM_138507.1 Rattus norvegicus protein tyrosine
- Ptpro TGFb/TGFB + VitD3 [1]: 5.0 NM_017336.1 Rattus norvegicus protein tyrosine
- RT1-Ba TGFb/TGFB + VitD3 [1]: 4.1 XM_579226.1 PREDICTED: Rattus norvegicus
- Sh3kbp1 TGFb/TGFB + VitD3 [1]: 4.4 NM_053360.2 Rattus norvegicus SH3-domain
- Slamf9_predic TGFb/TGFB + VitD3 [1]: 4.2 XM_213932.2 PREDICTED: Rattus norvegicus
- Stab1_predict TGFb/TGFB + VitD3 [1]: 5.6 XM_214279.3 PREDICTED: Rattus norvegicus
- Tmem26_pred TGFb/TGFB + VitD3 [1]: 3.8 XM_228108.3 PREDICTED: Rattus norvegicus
